# Test results: the NIST ThermoML archive (doi:10.1016/j.jct.2008.10.010)
# ± gives the expanded uncertainty stated by the source.
# Assays:
# [1] = 298.15 K; 101.33 kPa; Liquid; Pycnometric method
# [2] = refractive index (Na D-line) (dimensionless); conditions: 298.15 K; 101.33 kPa; Liquid; Standard Abbe refractometry
structure (smiles),measurement,setting,value
CCCCCCC [heptane],mass density,[1],679.53 ± 0.65 kg/m3
same,refractive index,[2],1.3852 ± 0.0008
